The source of these data is US9662327B2 (AGIOS PHARMACEUTICALS, INC, priority 2011, dated 2017).

Chain of IDH1 R132H (O75874 whole entry R132H): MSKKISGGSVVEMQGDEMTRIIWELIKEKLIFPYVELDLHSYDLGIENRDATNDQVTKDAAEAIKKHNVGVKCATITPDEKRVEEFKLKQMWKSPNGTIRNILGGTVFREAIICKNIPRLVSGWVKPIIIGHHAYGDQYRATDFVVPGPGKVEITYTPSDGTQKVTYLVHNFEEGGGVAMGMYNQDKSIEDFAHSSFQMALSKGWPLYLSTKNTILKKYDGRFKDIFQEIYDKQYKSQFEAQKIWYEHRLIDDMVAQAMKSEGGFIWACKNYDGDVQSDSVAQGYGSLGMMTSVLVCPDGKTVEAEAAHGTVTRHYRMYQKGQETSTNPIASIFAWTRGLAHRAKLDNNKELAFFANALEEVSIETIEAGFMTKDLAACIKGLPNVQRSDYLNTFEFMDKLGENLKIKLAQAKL

One assay has as its target IDH1 R132H (Homo sapiens (Human), UniProt O75874, R132H). As to the kind of experiment: Assays for IDH1 R132H Inhibitors (NADPH/aKG, resazurin detection). Format: biochemical. The note with it: IDH1 R132H enzyme, Table 2; read-out: IDHR132H Activity. Put shortly:
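Substrate mix held 8 uM NADPH plus 2 mM aKG; buffer was 20 mM Tris pH 7.5 with 150 mM NaCl, 10 mM MgCl2, 0.03% BSA. After 50 min room-temperature reaction, NADPH remaining was detected with 30 μM resazurin mix over 5 min.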
On the technique in general: The colour change of resazurin is a common sign of viable cells or microbes.
Regarding `CC(C)c1nc(N2CCN(C(=O)c3ccco3)C[C@@H]2C)c(C#N)c2c1COC(C)(C)C2` [Compound 202, (S)-6-(4-(furan-2-carbonyl)-2-methylpiperazin-1-yl)-8-isopropyl-3,3-dimethyl-3,4-dihydro-1H-pyrano[3,4-c]pyridine-5-carbonitrile], the IC50 is 1000 to 10000 nM.
`CC[C@@H]1CN(c2nc(C3CC3)c3c(c2C#N)CC(C)(C)OC3)CCN1C(=O)Cc1cccc(OC)c1` [Compound 296]: the IC50 was in the range of 500 to 1000 nM.
On the same count and under the same terms, next, `CC(C)c1nc(N2CCN(C(=O)c3ccc(Cl)cc3Cl)CC2)c(C#N)c2c1COCC2` [Compound 106, 6-(4-(2,4-dichlorobenzoyl)piperazin-1-yl)-8-isopropyl-3,4-dihydro-1H-pyrano[3,4-c]pyridine-5-carbonitrile]: 1000 to 10000 nM; `CCC1CN(c2nc(C3CCCCC3)c3c(c2C#N)CCOC3)CCN1C(=O)c1ccco1` (centres unmarked) [Compound 174, 8-cyclohexyl-6-(3-ethyl-4-(furan-2-carbonyl)piperazin-1-yl)-3,4-dihydro-1H-pyrano[3,4-c]pyridine-5-carbonitrile]: 1000 to 10000 nM.
Consider `CC(C)[C@@H]1CN(c2nc(C3CC3)c3c(c2C#N)CC(C)(C)OC3)CCN1C(=O)Cc1cccs1` [Compound 194], for which the IC50 is below 500 nM.
Still for that read-out and setting: next, `CCOC(=O)C1CN(c2nc(C(C)C)c3c(c2C#N)CC(C)(C)OC3)CCN1C(=O)c1ccoc1` (centres unmarked) [Compound 276]: 500 to 1000 nM; `C[C@@H]1CN(c2nc(C3CCCCC3)c3c(c2C#N)CCOC3)CCN1C(=O)Nc1ccccc1F` [Compound 300, (R)-4-(5-cyano-8-cyclohexyl-3,4-dihydro-1H-pyrano[3,4-c]pyridin-6-yl)-N-(2-fluorophenyl)-2-methylpiperazine-1-carboxamide]: 1000 to 10000 nM; `CCCC(=O)N1CCN(c2nc(C3CC3)c3c(c2C#N)CC(C)(C)OC3)C[C@H]1C(C)C` [Compound 383]: below 500 nM.
`COC(=O)CC(=O)N1CCN(c2nc(C3CC3)c3c(c2C#N)CC(C)(C)OC3)C[C@H]1C(C)C` [Compound 409, (R)-methyl 3-(4-(5-cyano-8-cyclopropyl-3,3-dimethyl-3,4-dihydro-1H-pyrano[3,4-c]pyridin-6-yl)-2-isopropylpiperazin-1-yl)-3-oxopropanoate]: the IC50 was below 500 nM.
Same read-out and setting: next, `C[C@@H]1CN(c2nc(C3CCCCC3)c3c(c2C#N)CC(C)(C)OC3)CCN1C(=O)Cc1cccs1` [Compound 153, (R)-8-cyclohexyl-3,3-dimethyl-6-(3-methyl-4-(2-(thiophen-2-yl)acetyl)piperazin-1-yl)-3,4-dihydro-1H-pyrano[3,4-c]pyridine-5-carbonitrile]: 1000 to 10000 nM; `C[C@H]1CN(C(=O)c2ccco2)CCN1c1nc(C2CC2)c2c(c1C#N)CC(C)(C)OC2` [Compound 203, (S)-8-cyclopropyl-6-(4-(furan-2-carbonyl)-2-methylpiperazin-1-yl)-3,3-dimethyl-3,4-dihydro-1H-pyrano[3,4-c]pyridine-5-carbonitrile]: 1000 to 10000 nM.
On the same count and under the same terms, next, `Cc1cncc(C(=O)N2CCN(c3nc(C4CC4)c4c(c3C#N)CC(C)(C)OC4)C[C@H]2C(C)C)c1` [Compound 245, (R)-8-cyclopropyl-6-(3-isopropyl-4-(5-methylnicotinoyl)piperazin-1-yl)-3,3-dimethyl-3,4-dihydro-1H-pyrano[3,4-c]pyridine-5-carbonitrile]: 1000 to 10000 nM.
Still for that read-out and setting: the figure for `CC(=O)OCCCN1CCN(c2nc(C3CC3)c3c(c2C#N)CC(C)(C)OC3)C[C@H]1C(C)C` [Compound 322] is 1000 to 10000 nM.

The assay is the same for the next values; noted with them: IDH1 R132H enzyme, Table 3; read-out: R132H IC50.
Turning to `CCOCCC(=O)N1CCN(c2nc(C3CC3)c3c(c2C#N)CC(C)(C)OC3)C[C@H]1C(C)C` [Compound 459, (R)-8-cyclopropyl-6-(4-(3-ethoxypropanoyl)-3-isopropylpiperazin-1-yl)-3,3-dimethyl-3,4-dihydro-1H-pyrano[3,4-c]pyridine-5-carbonitrile], the IC50 is below 500 nM.
